{
  "source": "patent US6639121B1",
  "about": "“Inducible cancer model to study the molecular basis of host tumor cell interactions in vivo” (Dana-Farber Cancer Institute, Inc., priority 1999, dated 2003)",
  "key": {"[1]": {"test_system": "Tyr/Tet-RAS INK4a−/− melanoma cell lines", "experiment": "SCID explant tumorigenicity of melanoma cell lines", "format": "in vivo, mouse", "conditions": "SCID mice treated with doxycycline", "excerpt": "To this end, we first assessed the impact of doxycycline withdrawal in different Tyr/Tet-RAS INK4a−/− tumor derived cell lines in cell culture. […] The derivative melanoma cell lines remained doxycycline-responsive as shown by their strict doxycycline-dependency for tumorigenic potential in SCID mice. Specifically, subcutaneous injection of purified Tyr/Tet-RAS INK4a−/− melanoma cell lines yielded tumors in SCID mice treated with doxycycline with 100% efficiency, while those mice not receiving doxycycline remained tumor-free after many months of observation (FIG. 3A). […] On the other hand, the data is also consistent with the possibility that tumor regression following doxycycline withdrawal may reflect a continued requirement for RAS in promoting and sustaining non-cell-autonomous tumor-host interactions that are essential for tumor growth and maintenance.\nPrimary tumors, derivative cell lines and SCID explant tumors. Transgenic mice were fed doxycycline drinking water (2 mg/ml sucrose water) and observed for spontaneous tumor development. Primary tumors were adapted to culture by mechanical mincing with sterilized razor blades and brief trypsinization and maintained on RPMI media containing 10% serum and supplemented with doxycycline (2 μg/ml media)^4. […]"}, "[2]": {"test_system": "Tyr/Tet-RAS INK4a−/− mice", "experiment": "Doxycycline-induced melanoma development in transgenic mice", "format": "in vivo, mouse", "conditions": "doxycycline in the drinking water from weaning", "excerpt": "To develop a cancer model in which dominantly acting oncoproteins are somatically regulated in vivo, transgenic mouse lines harboring the reverse tetracycline transactivator^2 under the control of the tyrosinase gene promoter-enhancer elements (designated Tyr-rtTA) and another containing the H-RAS^V12G open reading frame driven by a minimal promoter containing multimerized tet-operons.^2,3 (designated Tet-RAS) were inter-crossed with INK4a+/− mice to generate cohorts of single and double transgenic mice (designated Tyr/Tet-RAS) homozygous null for INK4a. Upon weaning, a subset of single and double transgenic INK4a −/− mice were administered doxycycline in the drinking water^4. In the doxycycline-treated group, 10 of 40 Tyr/Tet-RAS INK4a−/− mice developed melanomas with an average latency of 60 days (FIG. 1A). […] The Tyr/Tet-RAS INK4a−/− melanomas shared all of the macroscopic features of the constitutive Tyr-RAS INK4a−/− melanomas 5, manifesting as amelanotic, invasive and highly vascular tumors—features reminiscent of nodular-type melanoma in humans (for example, see FIGS. 2A&B).\nProduction of the transgenic mice. The reverse tetracycline transactivator (rtTA) is a 1050 bp EcoRI/BamHI fragment isolated from pUHD172-1neo^2. The Tet promoter contains a XhoI/EcoRI fragment of CMV minimal promoter linked to the tet operator sequences^2. […]"}},
  "data": [
    {"smiles": "C[C@H]1c2cccc(O)c2C(=O)C2=C(O)[C@]3(O)C(=O)C(C(N)=O)=C(O)[C@@H](N(C)C)[C@@H]3[C@@H](O)[C@@H]21", "note": "[doxycycline]", "values": [
      {"measurement": "efficiency of tumor formation after subcutaneous injection", "setting": "[1]", "result": 100, "unit": "%"},
      {"measurement": "average latency of melanoma development", "setting": "[2]", "result": 60, "unit": "days"}
    ]}
  ]
}
